Laboratory results taken from patent US9745299B2, “Substituted tricyclic benzimidazoles as kinase inhibitors” (SELVITA SA, priority 2012, dated 2017).

How the values were obtained:
CDK2/CyclinE = molecular target: T1, CDK2/CyclinE (Homo sapiens, UniProt P24941); assay: ADP-Glo Kinase Assay, CDK2/CyclinE; format: biochemical; details: read-out: % inhibition at 1 μM CDK2/CyclinE
T1 construct: purchased Millipore, Billerica, Mass., USA
Procedure: (§1) Testing of the compounds described in this invention was carried out using the ADP-Glo™ Kinase Assay from Promega Corporation (Madison, Wis., USA).
(§2) The ADP-Glo™ Kinase Assay is a luminescent ADP detection assay to measure kinase activity by quantifying the amount of ADP produced during a kinase reaction. The kinase assay is performed in kinase assay buffer (5 mM MOPS, pH 7.5, 5 mM MgCl2, 0.4 mM EDTA, 1.5 mM DTT). Test samples initially dissolved in DMSO at 10 mM were diluted with the assay buffer to 1000 nM. A 30 μL volume/well of a mixture of substrates containing ATP (final ATP concentration in each kinase assay was equal to its apparent ATP Km).
(§3) The assay was performed in two steps: first, after the kinase reaction, an equal volume of ADP-Glo™ Reagent was added to terminate the kinase reaction and deplete the remaining ATP. Second, the Kinase Detection Reagent was added to simultaneously convert ADP to ATP and allowed the newly synthesized ATP to be measured using a luciferase/luciferin reaction. The luminescent signal generated was proportional to the ADP concentration produced and was correlated with kinase activity.

CDK8/CyclinC = molecular target: T2, CDK8/CyclinC (Homo sapiens, UniProt P49336); assay: ADP-Glo Kinase Assay, CDK8/CyclinC; format: biochemical; details: read-out: % inhibition at 1 μM CDK8/CyclinC; also: ATP at apparent Km (53 µM)
T2 construct: purchased ProQinase, Freiburg, Germany
Procedure: as §1, §2, §3

HCT116 cells = assay: MTS viability assay, HCT116; format: cell-based; details: Homo sapiens, HCT-116, HCT116, 72 hour incubation, read-out: IC50 [μM] HCT116 ED50
Source text: (§4) The viability of CDK8 expressing cells can be evaluated using a tetrazolium salt reduction cell-based assay. In viable cells this colorimetric assay can measure mitochondrial reduction of a tetrazolium component (MTS) into an […] formazan product. For MTS viability assay, human colon cancer cell lines were used (SW480 and HCT116 cell lines), containing elevated levels of CDK8 protein and highly dependent on its expression for proliferation [see, Firenstein et al. Nature 455 (25):547-551, (2008)]. These cell lines were used to determine the activity of the compounds provided herein to inhibit CDK8 in intact cells. Human tumor cell lines were obtained from ATCC (Rockville Md. USA). In each case, and by methods known to those practiced in the art of cell culture, vaiability was measured after 72 hour incubation with the compounds provided herein using a standard MTS protocol (CellTiter 96® AQueous Non-Radioactive Cell Proliferation Assay).
(§5) Briefly, cells were plated at 10,000-20,000 cells per well in DMEM medium supplemented with 10% fetal bovine serum. The compound plate was set up by aliquoting into column 1 of a 96-well plate, the negative control (DMSO), aliquoting into column 12 the positive control, and titrating the test compound in serial dilutions into columns 2-11. An aliquot from each well of the compound plate was transferred to the plated cells and then incubated at 37° C. in 5% CO2. 20 μL of MTS tetrazolium was added to each well of optical plate and the cells were incubated at 37° C. in 5% CO2 for 2 hours. The absorbance was measured at 490 nm using a microplate reader.

CDK9/CyclinT = molecular target: T3, CDK9/CyclinT (Homo sapiens, UniProt P50750); assay: ADP-Glo Kinase Assay, CDK9/CyclinT; format: biochemical; details: read-out: % inhibition at 1 μM CDK9/CyclinT; also: ATP at apparent Km (26 µM)
T3 construct: purchased Proqinase, Freiburg, Germany
Procedure: as §1, §2, §3

SW480 cells = assay: MTS viability assay, SW480; format: cell-based; details: Homo sapiens, SW480, 72 hour incubation, read-out: IC50 [μM] SW-480 ED50
Source text: as §4, §5

T3 sequence (P50750 whole entry): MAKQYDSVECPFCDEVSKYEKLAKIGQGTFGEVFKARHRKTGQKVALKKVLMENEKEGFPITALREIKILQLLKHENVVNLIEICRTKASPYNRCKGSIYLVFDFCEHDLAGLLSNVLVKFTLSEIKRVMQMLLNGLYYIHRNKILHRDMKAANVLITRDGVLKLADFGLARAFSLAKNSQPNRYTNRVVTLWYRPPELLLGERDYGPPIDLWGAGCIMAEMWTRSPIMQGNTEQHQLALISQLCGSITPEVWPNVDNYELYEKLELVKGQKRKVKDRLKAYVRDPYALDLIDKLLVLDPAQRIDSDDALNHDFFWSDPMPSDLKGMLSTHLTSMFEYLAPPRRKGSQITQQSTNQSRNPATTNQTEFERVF
T3 sequence (O60563 whole entry partner): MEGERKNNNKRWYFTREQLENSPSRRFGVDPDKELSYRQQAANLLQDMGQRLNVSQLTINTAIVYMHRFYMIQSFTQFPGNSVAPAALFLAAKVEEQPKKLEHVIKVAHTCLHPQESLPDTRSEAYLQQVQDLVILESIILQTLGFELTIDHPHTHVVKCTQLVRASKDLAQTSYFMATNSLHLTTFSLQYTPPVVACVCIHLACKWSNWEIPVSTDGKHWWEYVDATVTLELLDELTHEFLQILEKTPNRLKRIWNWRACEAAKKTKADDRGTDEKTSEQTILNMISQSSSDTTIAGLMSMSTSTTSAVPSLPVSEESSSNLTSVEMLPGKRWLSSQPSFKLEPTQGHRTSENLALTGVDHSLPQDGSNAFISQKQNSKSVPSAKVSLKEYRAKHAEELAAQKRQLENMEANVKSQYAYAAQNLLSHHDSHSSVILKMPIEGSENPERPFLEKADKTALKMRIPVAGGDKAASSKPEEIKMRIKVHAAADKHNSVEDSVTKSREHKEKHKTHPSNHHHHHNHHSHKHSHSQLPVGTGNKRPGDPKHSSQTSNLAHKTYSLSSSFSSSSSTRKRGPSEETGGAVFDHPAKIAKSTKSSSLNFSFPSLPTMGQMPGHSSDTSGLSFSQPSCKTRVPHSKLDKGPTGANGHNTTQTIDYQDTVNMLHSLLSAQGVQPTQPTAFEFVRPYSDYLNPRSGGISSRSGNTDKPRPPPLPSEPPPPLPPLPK
T2 sequence (P49336 whole entry): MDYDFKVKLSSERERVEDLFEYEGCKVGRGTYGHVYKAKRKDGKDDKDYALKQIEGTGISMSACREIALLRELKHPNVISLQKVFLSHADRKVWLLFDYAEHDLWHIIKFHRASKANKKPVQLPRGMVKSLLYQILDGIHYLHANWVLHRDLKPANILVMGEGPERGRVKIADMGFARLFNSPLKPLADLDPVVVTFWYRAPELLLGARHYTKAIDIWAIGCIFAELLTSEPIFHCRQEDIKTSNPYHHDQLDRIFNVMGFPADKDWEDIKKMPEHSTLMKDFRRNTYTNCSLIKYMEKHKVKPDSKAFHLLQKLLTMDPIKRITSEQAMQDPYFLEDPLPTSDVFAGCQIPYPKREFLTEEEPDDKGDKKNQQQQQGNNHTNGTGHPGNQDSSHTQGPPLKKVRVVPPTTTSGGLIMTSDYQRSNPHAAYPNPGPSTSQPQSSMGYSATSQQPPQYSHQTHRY
T2 sequence (P24863 whole entry partner): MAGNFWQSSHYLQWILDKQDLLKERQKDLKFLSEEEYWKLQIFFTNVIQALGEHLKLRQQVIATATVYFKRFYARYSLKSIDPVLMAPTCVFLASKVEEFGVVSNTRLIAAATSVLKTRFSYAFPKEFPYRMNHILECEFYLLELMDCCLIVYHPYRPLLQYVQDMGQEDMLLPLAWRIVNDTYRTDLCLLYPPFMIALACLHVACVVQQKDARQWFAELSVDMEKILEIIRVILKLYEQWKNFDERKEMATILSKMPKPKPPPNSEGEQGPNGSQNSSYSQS

| inhibition at 1 µM (CDK2/CyclinE) [%] | inhibition at 1 µM (CDK8/CyclinC) [%] | IC50 (HCT116 cells) [µM] | inhibition at 1 µM (CDK9/CyclinT) [%] | IC50 (SW480 cells) [µM] | SMILES |
| --- | --- | --- | --- | --- | --- |
| 44 | 97 | 0.3 | 61 | 1.1 | N[C@@H]1CCN(c2nc3c(Br)c(Br)c(Br)c4c3n2CCC4)C1 [Example 1AE] |
| – | – | 1.3 | – | 1.8 | NCC1CN(c2nc3c(Br)c(Br)c(Br)c4c3n2CCC4)CCO1 (stereo not drawn) [Example 1AF] |
| 33 | 82 | 1.3 | 42 | 0.5 | NC1CCN(c2nc3c(Br)c(Br)c(Br)c4c3n2CCC4)CC1 [Example 1AG] |
| 0 | 93 | 1.7 | 2 | 1.8 | Cc1c(Br)c(Br)c2c3c1nc(N1CC[C@@H](N)C1)n3CCC2 [Example 1AK] |
| – | – | 5.3 | – | 1.8 | Cc1c(Br)c(Br)c2c3c1nc(N[C@H]1CCNC1)n3CCC2 [Example 1AL] |
| – | 61 | 2.4 | 10 | – | COc1c(Br)c2c3c(nc(N4CCNCC4)n3CCC2)c1Br [Example 1AN] |
| – | 65 | – | 15 | – | Cc1c(Br)c(Br)c2c3c1nc(N1CCC(N)CC1)n3CCC2 [Example 1AP] |
| – | 90 | 0.2 | 12 | 1.1 | CC1CCc2c(Br)c(Br)c(Br)c3nc(N4CCNCC4)n1c23 (stereo not drawn) [Example 1AU] |
| 0 | 57 | – | 41 | – | Brc1c(Br)c2c3c(nc(N[C@H]4CCCNC4)n3CCC2)c1Br [Example 1AW] |
| – | 61 | 1.6 | – | – | Cc1c(Br)c(Br)c2c3c1nc(N1CCCNCC1)n3CCC2 [Example 1AZ] |
| – | – | 1.3 | – | 0.5 | N[C@@H]1CCCC[C@H]1Nc1nc2c(Br)c(Br)c(Br)c3c2n1CCC3 [Example 1B] |
| 2 | 89 | 1.9 | 20 | 2.7 | CC1CNCCN1c1nc2c(Br)c(Br)c(Br)c3c2n1CCC3 (stereo not drawn) [Example 1E] |
| 29 | 96 | 0.7 | 45 | 1.1 | N[C@H]1CCN(c2nc3c(Br)c(Br)c(Br)c4c3n2CCC4)C1 [Example 1G] |
| 0 | 67 | – | 8 | – | NCC1CCCN1c1nc2c(Br)c(Br)c(Br)c3c2n1CCC3 (stereo not drawn) [Example 1H] |
| – | – | 1.5 | – | – | NC1CCCN(c2nc3c(Br)c(Br)c(Br)c4c3n2CCC4)C1 (stereo not drawn) [Example 1I] |
| – | – | 0.5 | – | – | Brc1c(Br)c2c3c(nc(NC4CCNCC4)n3CCC2)c1Br [Example 1J] |
| 19 | 81 | 1.1 | 9 | 1.4 | Brc1c(Br)c2c3c(nc(NC4CCNC4)n3CCC2)c1Br (stereo not drawn) [Example 1L] |
| 6 | 59 | 1.1 | 0 | 1.5 | NC1CCCN(c2nc3c(Br)c(Br)c(Br)c4c3n2CCC4)CC1 (stereo not drawn) [Example 1M] |
| – | 49 | 4.3 | – | – | Brc1cc2nc(N3CCNCC3)n3c2c(c1Br)CCC3 [Example 1N] |
| – | – | 1.3 | – | – | Cc1c(Br)c(Br)c2c3c1nc(NCCN)n3CCC2 [Example 1O] |
| – | – | 1.4 | – | – | Cc1c(Br)c2c3c(nc(NCCN)n3CCC2)c1Br [Example 1P] |
| – | 54 | 1.7 | 4 | 2.5 | Cc1c(Br)c(Br)c2nc(N3CCNCC3)n3c2c1CCC3 [Example 1S] |
| – | – | 1.6 | – | – | NCCNc1nc2c([N+](=O)[O-])c(Br)c(Br)c3c2n1CCC3 [Example 1U] |
| 20 | 96 | 0.4 | 21 | 1.3 | C[C@H]1CN(c2nc3c(Br)c(Br)c(Br)c4c3n2CCC4)CCN1 [Example 3AA] |
| 27 | 84 | 0.4 | 47 | 1.4 | C[C@@H]1CN(c2nc3c(Br)c(Br)c(Br)c4c3n2CCC4)CCN1 [Example 3AB] |

| inhibition at 1 µM (CDK2/CyclinE) [%] | inhibition at 1 µM (CDK8/CyclinC) [%] | IC50 (HCT116 cells) [µM] | inhibition at 1 µM (CDK9/CyclinT) [%] | IC50 (SW480 cells) [µM] | SMILES |
| --- | --- | --- | --- | --- | --- |
| 12 | 94 | – | 26 | – | O[C@@H]1CCN(c2nc3c(Br)c(Br)c(Br)c4c3n2CCC4)C1 [Example 3AC] |
| 0 | 76 | – | 0 | – | Cc1c(Br)c(Br)c2c3c1nc(N1CCNC(C)C1)n3CCC2 (stereo not drawn) [Example 3AH] |
| 0 | 75 | – | -9 | – | Cc1c(Br)c(Br)c2c3c1nc(N1CCN(C)CC1)n3CCC2 [Example 3AK] |
| – | 76 | – | 18 | – | CN(C)C1CCN(c2nc3c(Br)c(Br)c(Br)c4c3n2CCC4)C1 (stereo not drawn) [Example 3AL] |
| 4 | 85 | – | 21 | – | O[C@H]1CCN(c2nc3c(Br)c(Br)c(Br)c4c3n2CCC4)C1 [Example 3AN] |
| 16 | 93 | – | 22 | – | OC1CCN(c2nc3c(I)c(Br)c(Br)c4c3n2CCC4)CC1 [Example 3AO] |
| – | 81 | – | 9 | – | CCN(CC)c1nc2c(C)c(Br)c(Br)c3c2n1CCC3 [Example 3AP] |
| – | 75 | – | – | – | Cc1c(Br)c(Br)c2c3c1nc(N1CCSCC1)n3CCC2 [Example 3AR] |
| – | 82 | – | – | – | Cc1c(Br)c(Br)c2c3c1nc(N1CCN[C@H](C)C1)n3CCC2 [Example 3AT] |
| – | 76 | – | – | – | Cc1c(Br)c(Br)c2c3c1nc(N1CCOCC1)n3CCC2 [Example 3AU] |
| – | 45 | – | – | – | Brc1c(Br)c2c3c(nc(Nc4ccncc4)n3CCC2)c1Br [Example 3B] |
| – | 59 | – | – | – | Brc1c(Br)c2c3c(nc(Nc4ccccc4)n3CCC2)c1Br [Example 3C] |
| 3 | 64 | – | 3 | – | Brc1c(Br)c2c3c(nc(NC4CCCCC4)n3CCC2)c1Br [Example 3E] |
| – | 67 | – | – | – | OCCCNc1nc2c(Br)c(Br)c(Br)c3c2n1CCC3 [Example 3F] |
| – | 80 | – | – | – | Brc1c(Br)c2c3c(nc(N4CCOCC4)n3CCC2)c1Br [Example 3G] |
| – | – | 2.2 | – | – | CN(C)CCNc1nc2c(Br)c(Br)c(Br)c3c2n1CCC3 [Example 3K] |
| – | 54 | – | 6 | – | Brc1c(Br)c2c3c(nc(NCCCN4CCCC4)n3CCC2)c1Br [Example 3L] |
| – | 58 | – | 18 | – | CC1(C)CN(c2nc3c(Br)c(Br)c(Br)c4c3n2CCC4)CCN1 [Example 3N] |
| 7 | 89 | – | 16 | – | CC1CCCN1c1nc2c(I)c(Br)c(Br)c3c2n1CCC3 (stereo not drawn) [Example 3S] |
| 9 | 92 | – | 24 | – | OCC1CCCN(c2nc3c(Br)c(Br)c(Br)c4c3n2CCC4)C1 (stereo not drawn) [Example 3U] |
| 9 | 92 | – | 41 | – | CCN(CC)c1nc2c(I)c(Br)c(Br)c3c2n1CCC3 [Example 3X] |
| 21 | 69 | – | 17 | – | Nc1nc2c(I)c(Br)c(Br)c3c2n1CCC3 [Example 3Y] |
| 8 | 75 | – | 0 | – | COC1CCN(c2nc3c(Br)c(Br)c(Br)c4c3n2CCC4)CC1 [Example 4A, 7,8,9-tribromo-2-(4-methoxypiperidin-1-yl)-5,6-dihydro-4H-imidazo[4,5,1-ij]quinoline] |
| – | 66 | – | – | – | Cc1c(Br)c(Br)c2c3c1nc(C1CCN(C(C)C)CC1)n3CCC2 [Example 7D] |
